# Experimental data from PubChem BioAssay (NCI).
# Several values for one entry are separate records, joined by “and”; a condition that tells them apart may be missing. Equal entries are not always repeated.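 Five concentrations, 48 hours, 96-well plates. GI50: concentration for 50% inhibition of growth. TGI: concentration producing complete growth inhibition.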
# How the values were obtained:
# Test in all cases: inhibition of tumour cell growth, NCI panel, 48 h
# MOLT-4 leukemia = tested on: MOLT-4 leukemia
# RXF 393 renal = tested on: RXF 393 renal
# SK-MEL-2 melanoma = tested on: SK-MEL-2 melanoma
# SR leukemia = tested on: SR leukemia
# K-562 leukemia = tested on: K-562 leukemia
# PC-3 prostate = tested on: PC-3 prostate
# SN12C renal = tested on: SN12C renal
# RPMI-8226 leukemia = tested on: RPMI-8226 leukemia
# HS 578T breast = tested on: HS 578T breast
# HL-60(TB) leukemia = tested on: HL-60(TB) leukemia
# NCI-H522 lung = tested on: NCI-H522 lung
# TK-10 renal = tested on: TK-10 renal
# HOP-62 NSCLC = tested on: HOP-62 NSCLC
# MDA-N = tested on: MDA-N
# HCT-15 colon = tested on: HCT-15 colon
# MDA-MB-435 = tested on: MDA-MB-435
# HCC-2998 colon = tested on: HCC-2998 colon
# MDA-MB-231 breast = tested on: MDA-MB-231 breast
# IGROV1 ovarian = tested on: IGROV1 ovarian
Structure (SMILES),TGI (MOLT-4 leukemia) [µM],TGI (RXF 393 renal) [µM],TGI (SK-MEL-2 melanoma) [µM],TGI (SR leukemia) [µM],TGI (K-562 leukemia) [µM],TGI (PC-3 prostate) [µM],TGI (SN12C renal) [µM],TGI (RPMI-8226 leukemia) [µM],TGI (HS 578T breast) [µM],TGI (HL-60(TB) leukemia) [µM],TGI (NCI-H522 lung) [µM],TGI (TK-10 renal) [µM],TGI (HOP-62 NSCLC) [µM],TGI (MDA-N) [µM],TGI (HCT-15 colon) [µM],TGI (MDA-MB-435) [µM],TGI (HCC-2998 colon) [µM],TGI (MDA-MB-231 breast) [µM],TGI (IGROV1 ovarian) [µM],GI50 (HS 578T breast)
O=C1CCc2cc3c(cc21)CC1(Cc2ccccc2C1)C3,12.7,> 76.8,6.37,5.18,5.38,> 93.6,> 100,25.8,> 100,5.26,> 79.9,> 100,> 84.6,4.76,> 100,5.92,> 70.5,> 100,> 100,
Cc1ncc([N+](=O)[O-])n1CCNC(=O)CCCn1cnc([N+](=O)[O-])n1,> 100,> 100,> 100,> 100,> 100,> 100,> 55.9,> 100,> 100,> 100,> 100,> 69.5,> 100,> 100,> 100,> 100,> 100,> 100,> 100,
NCCCc1ccc2oc3ccccc3c2c1,30.5,32.4,38.2,52.2,69.4,33.1,31.9,70.7,47.7,31.2,40,30.4,32,29.6,36.4,29.1,22.5,33,43.7,
CCOC(=O)N1CCN(C(=O)Nc2cccc3ccccc23)CC1,> 10,> 10,> 10,> 10,> 10,> 10,> 10,> 10,> 10,> 10,> 10,> 10,> 10,> 10,> 10,> 10,> 10,> 10,> 10,
O=[N+]([O-])c1ccc(N=NN2CCCC2)cc1,> 100,> 100,> 100,> 100,> 100,> 100,> 100,> 100,> 100,> 100,> 100,> 100,> 100,> 100,> 100,> 100,20.6,> 100,> 100,
Nc1nnc(-c2ccco2)c(-c2ccco2)n1,> 100,> 100,> 100,> 100,> 100,> 100,> 100,> 100,> 100,> 100,> 100,> 100,,> 100,> 100,> 100,> 100,> 100,> 100,
Cc1ccc(-c2n[nH]c(=O)[nH]2)cc1,> 100,> 100,> 100,> 100,> 100,> 100,> 100,> 100,> 100,> 100,> 100,> 100,> 100,> 100,> 100,> 100,> 100,> 100,> 100,
CCc1cc2c(cc1CCCC(=O)O)CC1(Cc3ccc(C(=O)O)cc3C1)C2 (configuration not stated),> 100,> 100,> 100,> 100,> 100,> 100,> 100,> 100,> 100,> 100,> 100,> 100,> 100,> 100,> 100,> 100,> 100,> 100,> 100,
O=[N+]([O-])/C(C(Cl)=C(Cl)Cl)=C1/OCCS1,41.2,41.3,57.2,71.5,77.7,> 100,43.8,66.2,87.6,37.6,79.7,66.4,40.4,> 100,61,47.3,> 100,40.2,47.7,
CCOC(=O)COc1ccc(/C=C/C(=O)c2ccc(OC)cc2)cc1,> 100,46,85.8,87.4,> 100,62.5,39.6,> 100,> 100,> 100,73.6,> 100,53.3,75.1,77.3,62.9,48.7,88.3,> 100,
COc1ccc(-c2c(C#N)c(S)n(C3OC(CO)C(O)C(O)C3O)c(=O)c2C#N)cc1 (configuration not stated),> 100,> 100,> 100,> 100,> 100,> 100,> 100,> 100,> 100,> 100,> 100,> 100,> 100,> 100,> 100,> 100,> 100,> 100,> 100,37.3 µM and > 100 µM
COc1cc(/C=C/C2=NN(c3cccc(S(=O)(=O)O)c3)C3(C2)C(Cl)C(=O)N3c2nc3ccccc3s2)ccc1O (configuration not stated),44.9,> 100,> 100,34.8,61.9,> 100,47.5,37.6,> 100,42.5,30.4,28.2,,60.3,37.4,32.1,38.2,47.1,31.5,
